Measurements as given in ChEMBL document CHEMBL1921674, “Novel tricyclic inhibitors of IKK2: discovery and SAR leading to the identification of 2-methoxy-N-((6-(1-methyl-4-(methylamino)-1,6-dihydroimidazo[4,5-d]pyrrolo[2,3-b]pyridin-7-yl)pyridin-2-yl)methyl)acetamide (BMS-066)” (Bioorg Med Chem Lett, 2011).

Experiments:
[1] = target: T1, Inhibitor of nuclear factor kappa-B kinase subunit beta (Homo sapiens, UniProt O14920); experiment: Inhibition of human IKK2-mediated GST-IkappaBalpha protein fusion phosphorylation
T1 sequence (O14920 whole entry): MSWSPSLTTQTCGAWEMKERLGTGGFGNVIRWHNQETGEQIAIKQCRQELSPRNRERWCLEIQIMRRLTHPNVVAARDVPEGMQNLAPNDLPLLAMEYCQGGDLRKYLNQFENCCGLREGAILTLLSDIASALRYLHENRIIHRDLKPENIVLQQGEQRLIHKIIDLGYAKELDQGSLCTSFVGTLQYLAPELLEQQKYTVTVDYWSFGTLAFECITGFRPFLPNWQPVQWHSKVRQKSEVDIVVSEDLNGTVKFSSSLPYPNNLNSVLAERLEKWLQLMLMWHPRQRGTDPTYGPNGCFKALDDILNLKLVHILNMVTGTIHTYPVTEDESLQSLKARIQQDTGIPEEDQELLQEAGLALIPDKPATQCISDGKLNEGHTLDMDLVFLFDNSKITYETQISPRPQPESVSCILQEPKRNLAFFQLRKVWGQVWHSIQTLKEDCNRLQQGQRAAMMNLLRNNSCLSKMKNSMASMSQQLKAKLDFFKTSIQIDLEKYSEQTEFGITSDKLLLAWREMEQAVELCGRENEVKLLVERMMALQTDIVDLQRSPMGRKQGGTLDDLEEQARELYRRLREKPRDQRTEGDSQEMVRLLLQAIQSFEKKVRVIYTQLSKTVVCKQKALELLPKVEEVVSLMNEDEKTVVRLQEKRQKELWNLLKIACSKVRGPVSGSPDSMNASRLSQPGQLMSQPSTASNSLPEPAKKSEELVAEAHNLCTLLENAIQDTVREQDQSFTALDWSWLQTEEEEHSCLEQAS

PBMC = experiment: Antiinflammatory activity in human PBMC assessed as inhibition of LPS-induced TNFalpha release treated for 5 mins before LPS challenge measured after 4 hrs by ELISA; type: functional, cell-based
Blood = experiment: Antiinflammatory activity in human whole blood assessed as inhibition of LPS-induced TNFalpha release treated for 45 mins before LPS challenge measured after 6 hrs by ELISA; type: functional, tissue-based
[2] = Cmax in Lewis rat at 30 mg/kg, po; type: ADME, organism-based; design: dose 30 mg/kg, route oral; details: in vivo
[3] = AUC in Lewis rat at 30 mg/kg, po; type: ADME, organism-based; design: dose 30 mg/kg, route oral; details: plasma

| IC50 [1] [nM] | IC50 (Blood; Homo sapiens, Blood) [nM] | IC50 (Blood) [nM] | Cmax [2] [µM] | AUC [3] [µM·h] | SMILES | IC50 (PBMC; Homo sapiens, PBMC) [nM] | IC50 (PBMC; pbmc) [nM] |
| --- | --- | --- | --- | --- | --- | --- | --- |
| 5 | 1800 | – | – | – | CNc1nc2[nH]c(-c3cccc(CNC(=O)CCN(C)C)n3)cc2c2c1ncn2C | 220 | – |
| 33 | 5900 | – | – | – | CNc1nc2[nH]c(-c3cccc(CNC(=O)C4CC4)n3)cc2c2c1ncn2C | 280 | – |
| 130 | – | – | – | – | CNc1nc2[nH]c(-c3cccc(NC(C)=O)n3)cc2c2c1ncn2C | 1900 | – |
| 13 | 7000 | – | 7.8 | 39 | CNc1nc2[nH]c(-c3cccc(CNC(=O)CCOC)c3)cc2c2c1ncn2C | – | – |
| – | 3500 | – | – | – | CCNc1nc2sc(-c3cccc([C@H](C)NC(C)=O)c3)nc2c2c1ncn2C | – | – |
| 330 | – | – | – | – | CNc1nc2[nH]c(-c3cc(CNC(C)=O)ccn3)cc2c2c1ncn2C | – | – |
| 13 | 1800 | – | – | – | CNc1nc2[nH]c(-c3cccc(CNC(=O)CO)n3)cc2c2c1ncn2C | 530 | – |
| 23 | 5900 | – | – | – | CNc1nc2[nH]c(-c3cccc(CNC(=O)c4cnccn4)n3)cc2c2c1ncn2C | 290 | – |
| 438 | > 25000 | – | – | – | CNc1nc2[nH]c(-c3cccc(N(C)CCOC)n3)cc2c2c1ncn2C | 1900 | – |
| 81 | 7000 | – | – | – | CNc1nc2[nH]c(-c3cccc(C4(NC(C)=O)CC4)n3)cc2c2c1ncn2C | 400 | – |
| 19 | 3300 | – | – | – | CNc1nc2[nH]c(-c3cccc(CN(C)C(=O)COC)n3)cc2c2c1ncn2C | 350 | – |
| 14 | 3000 | – | – | – | CNc1nc2[nH]c(-c3cccc(CN(C)C(C)=O)n3)cc2c2c1ncn2C | 230 | – |
| 66 | 5500 | – | – | – | CNc1nc2[nH]c(-c3cccc(CNC(=O)C(C)(C)C)n3)cc2c2c1ncn2C | 310 | – |
| 16 | 1700 | – | – | – | CNc1nc2[nH]c(-c3cccc(C(C)NC(C)=O)n3)cc2c2c1ncn2C (single isomer, unassigned) | – | 680 |

Further lines, the molecule ahead of its results:

| SMILES | IC50 [1] [nM] | IC50 (Blood; Homo sapiens, Blood) [nM] | IC50 (Blood) [nM] | Cmax [2] [µM] | AUC [3] [µM·h] | IC50 (PBMC; Homo sapiens, PBMC) [nM] | IC50 (PBMC; pbmc) [nM] |
| --- | --- | --- | --- | --- | --- | --- | --- |
| CNc1nc2[nH]c(-c3cccc(CNC(=O)C(C)(C)O)n3)cc2c2c1ncn2C | 12 | 3400 | – | – | – | 240 | – |
| CCC(=O)NCc1cccc(-c2cc3c(nc(NC)c4ncn(C)c43)[nH]2)n1 | 44 | 6100 | – | – | – | 700 | – |
| CNc1nc2[nH]c(-c3cccc(CNC(=O)CC(C)C)n3)cc2c2c1ncn2C | 26 | 15000 | – | – | – | 390 | – |
| CNc1nc2[nH]c(-c3cccc(C(C)NC(C)=O)n3)cc2c2c1ncn2C (single isomer, unassigned; enantiomer 2) | 9 | – | 1600 | – | – | – | 300 |
| CNc1nc2[nH]c(-c3cccc(NCCOC)n3)cc2c2c1ncn2C | 20 | 6400 | – | – | – | 350 | – |
| CNc1nc2[nH]c(-c3cccc(CNC(=O)C4(C)CC4)n3)cc2c2c1ncn2C | 41 | – | – | – | – | 570 | – |
| CNCC(=O)NCc1cccc(-c2cc3c(nc(NC)c4ncn(C)c43)[nH]2)n1 | 86 | 17000 | – | – | – | 130 | – |
| CNc1nc2[nH]c(-c3cccc(N4CCN(C)CC4)n3)cc2c2c1ncn2C | 128 | > 25000 | – | – | – | 1500 | – |
| CNc1nc2[nH]c(-c3cccc(CNC(=O)CCOC)n3)cc2c2c1ncn2C | 12 | 3300 | – | – | – | 280 | – |
| CNc1nc2[nH]c(-c3cccc(CNC(C)=O)c3)cc2c2c1ncn2C | 14 | – | – | – | – | – | – |
| CNc1nc2[nH]c(-c3cccc(CNC(=O)c4csnn4)n3)cc2c2c1ncn2C | 28 | 5200 | – | – | – | 230 | – |
| CNC(=O)N(C)Cc1cccc(-c2cc3c(nc(NC)c4ncn(C)c43)[nH]2)n1 | 5.7 | 1700 | – | – | – | 350 | – |
| CNc1nc2[nH]c(-c3cccc(CNC(C)=O)n3)cc2c2c1ncn2C | 19 | 1600 | – | – | – | 160 | – |
